# Patent US5961482A, “Iontotherapeutic device and process and iontotherapeutic unit dose” (Rutgers, The State University Of New Jersey, priority 1996, dated 1999)
# Values joined by “and” are separate entries in the source; they are usually repeats but may differ in a detail not shown here. Equal entries are not always repeated.
# Assays:
# [1] = In vitro skin permeation of vasopressin, Valia-Chien cell, H^3-vasopressin scintillation counting; format: in vitro ADME, hairless rat; conditions: pH 7.4
# [2] = as above; format: in vitro ADME, hairless rat; conditions: for Enhancement factor: vs passive diffusion (1.32 ng/cm^2 /hr)
# Procedure: (§1) An aqueous buffer solution of vasopressin (50 mcg/ml containing 1.7 mcCi/ml H^3 -vasopressin) is prepared in citrate-phosphate buffer at pH 5.0. An aliquot of 3.5 ml of this vasopressin solution is filled into the refillable dosage unit having a microporous membrane as the drug-releasingsurface. The dosage unit is then assembled as a part of the pharmaceutical reservoir electrode of the iontotherapeutic device and membrane surface thereof is applied to the stratum corneum side of hairless rat skin mounted in the Valia-Chien skin permeation cell at 37° C. Samples are withdrawn at regular intervals and radioactivity is measured by scintillation counter to determine the amount of vasopressin which has been transdermally absorbed.
# as §1, with “aqueous buffered” for “aqueous buffer”, “pH 7.4 with varying ionic strengths.” for “pH 5.0.”, “the drug-releasing surface.” for “the drug-releasingsurface.”, “regular time” for “regular”
# as §1, with “aqueous buffered” for “aqueous buffer”, “pH 5.0 at ionic strength of 0.064.” for “pH 5.0.”, “the drug-releasing surface.” for “the drug-releasingsurface.”, “regular time” for “regular”
# [3] = tested on: urine osmolarity in anesthetized rabbits; assay: Urine osmolarity / urine output in anesthetized rabbits; format: in vivo
# Procedure: An aqueous buffer solution of vasopressin (40 IU/ml) is prepared in citrate-phosphate buffer at pH 5.0. Vasopressin is an anti-diuretic pharmaceutical, which is used by patients which have an excessive urine output. Vasopressin caused a reduction of urine output and an increase in ion content, such as sodium ion content. Ion content in the urine is determined by using osmolarity measurement. An aliquot of 3.5 ml of this vasopressin solution is filled into the refillable dosage unit having a microporous membrane as the drug-releasing surface. The dosage unit is then assembled as a part of the pharmaceutical reservoir electrode of the iontotherapeutic device and membrane surface thereof is applied to the abdominal skin of 2 groups of anesthetized rabbits. Blood samples are withdrawn and urine samples are collected at regular time intervals and urine osmolarity is measured by osmometer. The increases in osmolarity from the basal level are the pharmacodynamic responses to the vasopressin transdermally absorbed.
# [4] = TPIS 0.3 mA, 16 KHz, on/off 1/1, 60 min, pH 5.0, ionic strength 0.064
smiles,measurement,setting,value
"NC(=O)CC[C@@H]1NC(=O)[C@H](Cc2ccccc2)NC(=O)[C@H](Cc2ccc(O)cc2)NC(=O)[C@@H](N)CSSC[C@@H](C(=O)N2CCC[C@H]2C(=O)N[C@@H](CCCN=C(N)N)C(=O)NCC(N)=O)NC(=O)[C@H](CC(N)=O)NC1=O [Vasopressin, vasopressin]",Skin Permeation Rate,"[1]; TPIS 0.5 mA, 2 KHz, on/off 1/1, ionic strength 0.061, ± SD",632.6 (±65.0) ng/cm^2 /hr
same,Skin Permeation Rate,"[1]; TPIS 0.5 mA, 2 KHz, on/off 1/1, ionic strength 0.244, ± SD",101.4 (±9.1) ng/cm^2 /hr
same,Skin Permeation Rate,"[1]; passive diffusion, 30 hours",1.32±0.38 ng/cm^2 /hr
same,Skin Permeation Rate,"[2]; NO TPIS, 0.0 mA (passive diffusion), pH 5.0, X ± SD",0.94±0.62 ng/cm^2 hr and 0.94 (±0.62) ng/cm^2 hr
same,Skin Permeation Lag Time,"[2]; NO TPIS, 0.0 mA, pH 5.0, X ± SD",9.12 (±1.06) hours
same,time after TPIS treatment for skin permeability to return to the rate before treatment,"[2]; TPIS 0.3 mA, 16 KHz, 60 min, pH 5.0, ionic strength 0.064",less than 2 hours
same,Skin Permeation Rate,[2]; [4],757.3 (±53.2) ng/cm^2 /hr
same,duration of time lag,[2]; [4],0.40 (±0.06) hours
same,Skin Permeation Rate,"[2]; TPIS 0.5 mA, 2 KHz, on/off 1/1, pH 7.4, ionic strength 0.122, ± SD",244.6 (±26.3) ng/cm^2 /hr
same,Skin Permeation Rate,"[2]; TPIS 0.5 mA, 2 KHz, on/off 1/1, pH 7.4, ionic strength 0.488, ± SD",65.9 (±13.1) ng/cm^2 /hr
same,Skin Permeation Lag Time,"[2]; With TPIS, activation phase, 0.5 mA, 2 KHz, on/off 1/1, 10 min per 40 min, pH 5.0",< 0.5 h
same,Skin Permeation Rate,"[2]; With TPIS, activation phase, 0.5 mA, 2 KHz, on/off 1/1, 10 min per 40 min, pH 5.0, X ± SD",116.2 (±10.7) ng/cm^2 hr
same,Skin Permeation Lag Time,"[2]; With TPIS, activation phase, 1.0 mA, 2 KHz, on/off 1/1, 10 min per 40 min, pH 5.0",< 0.5 h
same,Skin Permeation Rate,"[2]; With TPIS, activation phase, 1.0 mA, 2 KHz, on/off 1/1, 10 min per 40 min, pH 5.0, X ± SD",178.0 (±25) ng/cm^2 hr
same,duration of time lag,"[2]; passive diffusion, pH 5.0, ionic strength 0.064",9 h
same,Skin Permeation Rate,"[2]; passive diffusion, pH 5.0, ionic strength 0.064, 30 hours",0.98±0.26 ng/cm^2 /hr
same,Skin Permeation Rate,"[2]; post-activation phase (0.0 mA) after 0.5 mA TPIS, pH 5.0, X ± SD",0.7 (±0.4) ng/cm^2 hr
same,Skin Permeation Rate,"[2]; post-activation phase (0.0 mA) after 1.0 mA TPIS, pH 5.0, X ± SD",5.3 (±0.5) ng/cm^2 hr
same,Enhancement factor,"[2]; TPIS 0.5 mA, ionic strength 0.061",472.8 (±59.0)
same,Enhancement factor,"[2]; TPIS 0.5 mA, ionic strength 0.122",185.3 (±19.9)
same,Enhancement factor,"[2]; TPIS 0.5 mA, ionic strength 0.244",76.8 (±6.9)
same,Enhancement factor,"[2]; TPIS 0.5 mA, ionic strength 0.488",49.9 (±18.0)
same,"urine osmolarity, TPIS vs TIDD","[3]; TPIS 0.22 mA/cm^2, 2 KHz, on/off 1/1, square, 40 min, 40 IU/ml pH 5.0",increases from the basal levels more rapidly and substantially
same,"urine output, TPIS vs TIDD","[3]; TPIS, vasopressin solution pH 5.0",more effective in reducing urine output than TIDD
